From doi:10.1101/2022.02.27.481963v1 (biorxiv, 2022) come the findings set out here.

One series deals with fused MjGMPS. In words: continuous absorbance at […] nm, GMP formation. The conditions noted are these: ATPPase site, pH 7.0, 70 °C. It counts as biochemical, Methanocaldococcus jannaschii.
Substrate in the series “purified protein”: O=c1[nH]c(=O)c2ncn([C@@H]3O[C@H](COP(=O)(O)O)[C@@H](O)[C@H]3O)c2[nH]1
Nature of the series: purified protein. It counts as biochemical, Methanocaldococcus jannaschii. The conditions noted are these: pH 7.0, 70 °C.

For the molecule `Nc1ncnc2c1ncn2[C@@H]1O[C@H](COP(=O)(O)OP(=O)(O)OP(=O)(O)O)[C@@H](O)[C@H]1O` [ATP.Mg^2+], the Michaelis constant (Km) in the series on fused MjGMPS (Mg2+ complex, saturating XMP) stood at 503 ± 6 µM.
In the case of `O=c1[nH]c(=O)c2ncn([C@@H]3O[C@H](COP(=O)(O)O)[C@@H](O)[C@H]3O)c2[nH]1` [XMP], the Km with fused MjGMPS (saturating ATP.Mg2+) came to 44 ± 1 µM.

B1: MjATPPase (Methanocaldococcus jannaschii DSM 2661) (protein)
chain: MFDPKKFIDEAVEEIKQQISDRKAIIALSGGVDSSVAAVLTHKAIGDKLTAVFVDTGLMRKGEREEVEKTFRDKLGLNLIVVDAKDRFLNALKGVTDPEEKRKIIGKLFIDVFEEIAEDIKAEVLVQGTIAPDWIETQGKIKSHHNVALPHGMVLEVVEPLRELYKDEVRLLAKELGLPDSIVYRQPFPGPGLAVRVLGEVTEEKLNICREANAIVEEEVKKANLDKDLWQYFAVVLDCKATGVKGDEREYNWIVALRMVKSLDAMTAHVPEIPFDLLKRISKRITSEIPNVARVVFDITDKPPATIEFE
As to B1, the Michaelis-Menten constant (Km) in the series “purified protein” (NH4Cl dependent, saturating ATP.Mg2+ and NH4Cl) was 30 ± 2 µM.

B2: MjGMPS (MjATPPase + MjGATase), ATPPase site (Methanocaldococcus jannaschii DSM 2661) (protein)
chain: B1 chain
Consider B2, for which the Km in “purified protein” (Gln dependent, saturating ATP.Mg2+ and Gln) turned out to be 61 ± 3 µM.
